Calls of active or inactive are those of the source. The rule behind the calls is not given here.
What was measured:
A549 [1] = assay: Induction of apoptosis in human A549 cells assessed as decrease in viable cells after 24 hrs by Annexin V-FITC/propidium iodide staining based flow cytometry; assay type: functional, cell-based
A549 [2] = assay: Induction of apoptosis in human A549 cells assessed as increase in apoptotic cells after 24 hrs by Annexin V-FITC/propidium iodide staining based flow cytometry; assay type: functional, cell-based
[3] = Drug internalization in human HeLa cells at 100 nM incubated for 2 hrs at 4 degC by confocal fluorescence imaging analysis; assay type: ADME, cell-based; settings: 0.1 µM
A549 [4] = assay: Induction of apoptosis in human A549 cells assessed as early apoptotic cells at 5 ug/ml after 24 hrs by Annexin V-FITC/propidium iodide staining based flow cytometry (reference value: 6.09%); assay type: functional
MCF7 [5] = assay: Antineoplastic activity against human MCF7 cells measured after 36 hrs by MTT assay; assay type: functional, cell-based; settings: MCF7, 36 h
HUVEC [6] = assay: Cytotoxicity against HUVEC measured after 36 hrs by MTT assay; assay type: cell-based; settings: Homo sapiens
HepG2 = assay: Antineoplastic activity against human HepG2 cells measured after 36 hrs by MTT assay; assay type: functional, cell-based; settings: HepG2, 36 h
HeLa = assay: Antineoplastic activity against human HeLa cells measured after 36 hrs by MTT assay; assay type: functional, cell-based
A549 [7] = assay: Antineoplastic activity against human A549 cells measured after 36 hrs by MTT assay; assay type: functional, cell-based; settings: A549, 36 h
A549 [8] = assay: Induction of apoptosis in human A549 cells assessed as early apoptotic cells at 1 ug/ml after 24 hrs by Annexin V-FITC/propidium iodide staining based flow cytometry (reference value: 6.09%); assay type: functional
A549 [9] = assay: Induction of apoptosis in human A549 cells assessed as early apoptotic cells at 2 ug/ml after 24 hrs by Annexin V-FITC/propidium iodide staining based flow cytometry (reference value: 6.09%); assay type: functional
HUVEC [10] = assay: Cytotoxicity against HUVEC; assay type: cell-based; settings: Homo sapiens
Salmon testes DNA [11] = assay: Binding affinity to Salmon sperm DNA assessed as hypochromic shift at 5 x 10^-5M by absorption spectra analysis; assay type: nucleic-acid assay; settings: Salmonidae
Salmon testes DNA [12] = assay: Binding affinity to Salmon sperm DNA assessed as DNA intercalation at 1.5 x 10^-5M by ethidium bromide staining based fluorescence assay; assay type: nucleic-acid assay; settings: Salmonidae
MCF7 [13] = assay: Induction of apoptosis in human MCF7 cells assessed as increase in apoptotic cells after 24 hrs by Annexin V-FITC/propidium iodide staining based flow cytometry; assay type: functional, cell-based
MCF7 [14] = assay: Induction of apoptosis in human MCF7 cells assessed as decrease in viable cells after 24 hrs by Annexin V-FITC/propidium iodide staining based flow cytometry; assay type: functional, cell-based
MCF7 [15] = assay: Induction of apoptosis in human MCF7 cells assessed as early apoptotic cells at 0.1 ug/ml after 24 hrs by Annexin V-FITC/propidium iodide staining based flow cytometry (reference value: 2.83%); assay type: functional
MCF7 [16] = assay: Induction of apoptosis in human MCF7 cells assessed as early apoptotic cells at 1 ug/ml after 24 hrs by Annexin V-FITC/propidium iodide staining based flow cytometry (reference value: 2.83%); assay type: functional
MCF7 [17] = assay: Induction of apoptosis in human MCF7 cells assessed as early apoptotic cells at 5 ug/ml after 24 hrs by Annexin V-FITC/propidium iodide staining based flow cytometry (reference value: 2.83%); assay type: functional

SMILES	IC50 (MCF7 [5]) [µM]	IC50 (HUVEC [6]) [µM]	IC50 (HepG2) [µM]	IC50 (HeLa) [µM]	IC50 (A549 [7]) [µM]	Activity (Salmon testes DNA [11])	other results
CC(C)c1ccc2c(c1)CC[C@H]1[C@](C)(CN)CCC[C@]21C.O=C(O)c1nc[nH]c1C(=O)O [listing 1 of 2 here]							Activity (A549 [1]): Dose-dependent effect; Activity (A549 [2]): Dose-dependent effect
CC(C)c1ccc2c(c1)CC[C@H]1[C@](C)(CN)CCC[C@]21C							Drug uptake [3]: Not Active
CC(C)c1ccc2c(c1)CC[C@H]1[C@](C)(CN)CCC[C@]21C.O=C(O)c1nc[nH]c1C(=O)O [listing 2 of 2 here]	6.47	1.21	4.62	18.7	1.85		Activity (A549 [4]): 76.86%; Activity (A549 [8]): 12.47%; Activity (A549 [9]): 30.64%
O=c1[nH]cc(F)c(=O)[nH]1 [FLUOROURACIL]							IC50 (HUVEC [10]): 11.7 µM
CC(C)c1ccc2c(c1)CC[C@H]1[C@](C)(CNC(=O)c3ncn(C)c3C(=O)O)CCC[C@]21C	12.1	33	6.52	16.8	12.3	Active	
CC(C)c1ccc2c(c1)CC[C@H]1[C@](C)(CN)CCC[C@]21C.CC(C)c1ccc2c(c1)CC[C@H]1[C@](C)(CN)CCC[C@]21C.O=C(O)c1nc[nH]c1C(=O)O [listing 1 of 2 here]						Active	Activity (Salmon testes DNA [12]): Active; Activity (MCF7 [13]): Dose-dependent effect; Activity (MCF7 [14]): Dose-dependent effect
CC(C)c1ccc2c(c1)CC[C@H]1[C@](C)(CNC(=O)c3cncn3C)CCC[C@]21C	2.17	57.8	12	20.9	53.2	Active	
COc1cccc2c1C(=O)c1c(O)c3c(c(O)c1C2=O)C[C@@](O)(C(=O)CO)C[C@@H]3O[C@H]1C[C@H](N)[C@H](O)[C@H](C)O1 [DOXORUBICIN]	14	4.4		3.55	3.35		
CC(C)c1ccc2c(c1)CC[C@H]1[C@](C)(CN)CCC[C@]21C.CC(C)c1ccc2c(c1)CC[C@H]1[C@](C)(CN)CCC[C@]21C.O=C(O)c1nc[nH]c1C(=O)O [listing 2 of 2 here]	0.75	3.98	2.91	2.88	4.37		Activity (MCF7 [15]): 25.4%; Activity (MCF7 [16]): 39.49%; Activity (MCF7 [17]): 54.21%
CC(C)c1ccc2c(c1)CC[C@H]1[C@](C)(CNC(=O)c3ncn(C)c3C(=O)NC[C@]3(C)CCC[C@]4(C)c5ccc(C(C)C)cc5CC[C@@H]34)CCC[C@]21C	9.85	44.9	50.5	48.5	17	Active	

— ChEMBL document CHEMBL4480368, “Synthesis and potential antineoplastic activity of dehydroabietylamine imidazole derivatives” (Medchemcomm, 2018)
